The data set is described as follows: Solubility of the product as observed. It is filed as physicochemical. The following applies: in words; water or methanol. The method, then:
5-norbornene-2-methanol (CAS 95-12-5, 1 gram) and sodium hydride (NaH, 60% dispersion in mineral oil, 0.6 grams) are dissolved in 50 milliliters of anhydrous THF. The mixture is refluxed overnight at 80 degrees C. After refluxing, 1,3-propane sultone (CAS 1120-71-4, 0.98 grams) in 20 milliliters of THF is added to the mixture in 10 minutes. After 5 hours, the solvent is removed by rotary evaporation and the reaction product is purified by column chromatography using silica and ethyl acetate/methanol (4:1) as eluent. […] The product yield is about 60 weight percent.
A ruthenium metal complex 1,3-bis(2,4,6-trimethylphenyl)-2-imidazolidinylidene)dichloro(phenylmethylene)(tricyclohexylphosphine)ruthenium (CAS No. 246047-72-3, 5 milligrams) is charged in a HPLC flask and the flask is degassed and purged with argon three times. Methylene chloride (CH2Cl2, 50 microliters) is injected into the flask using a syringe. The metal complex solution is cooled at −78 degrees Celsius in a dry ice and acetone bath. Norbornene sulfonate (10 milligrams, Sample 1 from Example 1) is charged into a second flask and degassed and the flask is backfilled with argon three times. Degassed methanol (500 microliters) is added to norbornene sulfonate using a syringe. The resulting mixture is also cooled at −78 degrees Celsius. […]

`O=S(=O)([O-])C1CC2C=CC1C2.[Na+]` (stereo not shown) [Sample 1, norbornene-sodium sulfonate]: the solubility result is given as “soluble in water or methanol”.

The values above are taken from patent US20080306230A1, “Composition and Associated Method” (GENERAL ELECTRIC COMPANY, priority 2007, published 2008).
